Assay results from PubChem BioAssay AID1918930 (Molecular Pharmacology Branch, DTP, NCI, 2023).

Tested on: 233499-124-R-J3-PDC complex spheroid viability, % test/control
Assay: Anticancer human tumor 233499-124-R-J3-PDC patient-derived colon adenocarcinoma cell line growth inhibition
Conditions: for IC50: curve of first compound; for viability, T/C: stronger effect = lower value
How it was run: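 Multicellular complex spheroids of tumor cells with human endothelial cells (HUVEC) and mesenchymal stem cells; the LSD1 inhibitor iadademstat was combined with standard-of-care or investigational agents. Top concentration at or near clinical Cmax, half-log dilutions; final DMSO ≤0.25%.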

[1] = second compound 0.1 µM, first compound 0.000316 µM
[2] = second compound 0.1 µM, first compound 0.001 µM
[3] = second compound 0.1 µM, first compound 0.00316 µM
[4] = second compound 0.1 µM, first compound 0.01 µM
[5] = second compound 0.1 µM, first compound 0.0316 µM
[6] = second compound 0.1 µM, first compound 0.1 µM
[7] = second compound 0.316 µM, first compound 0.000316 µM
[8] = second compound 0.316 µM, first compound 0.001 µM
[9] = second compound 0.316 µM, first compound 0.00316 µM
[10] = second compound 0.316 µM, first compound 0.01 µM
[11] = second compound 0.316 µM, first compound 0.0316 µM
[12] = second compound 0.316 µM, first compound 0.1 µM
[13] = second compound 1 µM, first compound 0.000316 µM
[14] = second compound 1 µM, first compound 0.001 µM
[15] = second compound 1 µM, first compound 0.00316 µM
[16] = second compound 1 µM, first compound 0.01 µM
[17] = second compound 1 µM, first compound 0.0316 µM
[18] = second compound 1 µM, first compound 0.1 µM
[19] = second compound 3.16 µM, first compound 0.000316 µM
[20] = second compound 3.16 µM, first compound 0.001 µM
[21] = second compound 3.16 µM, first compound 0.00316 µM
[22] = second compound 3.16 µM, first compound 0.01 µM
[23] = second compound 3.16 µM, first compound 0.0316 µM
[24] = second compound 3.16 µM, first compound 0.1 µM
[25] = second compound 10 µM, first compound 0.000316 µM
[26] = second compound 10 µM, first compound 0.001 µM
[27] = second compound 10 µM, first compound 0.00316 µM
[28] = second compound 10 µM, first compound 0.01 µM
[29] = second compound 10 µM, first compound 0.0316 µM
[30] = second compound 10 µM, first compound 0.1 µM
[31] = second compound 0.1 µM, first compound 0.00949 µM
[32] = second compound 0.1 µM, first compound 0.03 µM
[33] = second compound 0.1 µM, first compound 0.0949 µM
[34] = second compound 0.1 µM, first compound 0.3 µM
[35] = second compound 0.1 µM, first compound 0.949 µM
[36] = second compound 0.1 µM, first compound 3 µM
[37] = second compound 0.316 µM, first compound 0.00949 µM
[38] = second compound 0.316 µM, first compound 0.03 µM
[39] = second compound 0.316 µM, first compound 0.0949 µM
[40] = second compound 0.316 µM, first compound 0.3 µM
[41] = second compound 0.316 µM, first compound 0.949 µM
[42] = second compound 0.316 µM, first compound 3 µM
[43] = second compound 1 µM, first compound 0.00949 µM
[44] = second compound 1 µM, first compound 0.03 µM
[45] = second compound 1 µM, first compound 0.0949 µM
[46] = second compound 1 µM, first compound 0.3 µM
[47] = second compound 1 µM, first compound 0.949 µM
[48] = second compound 1 µM, first compound 3 µM
[49] = second compound 3.16 µM, first compound 0.00949 µM
[50] = second compound 3.16 µM, first compound 0.03 µM
[51] = second compound 3.16 µM, first compound 0.0949 µM
[52] = second compound 3.16 µM, first compound 0.3 µM
[53] = second compound 3.16 µM, first compound 0.949 µM
[54] = second compound 3.16 µM, first compound 3 µM
[55] = second compound 10 µM, first compound 0.00949 µM
[56] = second compound 10 µM, first compound 0.03 µM
[57] = second compound 10 µM, first compound 0.0949 µM
[58] = second compound 10 µM, first compound 0.3 µM
[59] = second compound 10 µM, first compound 0.949 µM
[60] = second compound 10 µM, first compound 3 µM
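Further: spheroids exposed to agents for one week before readout.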

In the case of `CC(C)CC(NC(=O)C(Cc1ccccc1)NC(=O)c1cnccn1)B(O)O` (stereo not given) + NC1CCC(NC2CC2c2ccccc2)CC1, the IC50 (second compound 0.1 µM) is reported as 2.62 nM, the IC50 (second compound 0.316 µM) is reported as 2.93 nM and the IC50 (second compound 1 µM) is reported as 2.18 nM. The IC50 (second compound 3.16 µM) was 1.95 nM, the IC50 (second compound 10 µM) was 2.83 nM and the viability, T/C [1] was 105%. For the same molecule, the viability, T/C [2] was 114%, the viability, T/C [3] was 38.4% and the viability, T/C [4] was 0.08%. The viability, T/C [5] was 1.9%, the viability, T/C [6] was 2.95% and the viability, T/C [7] was 110%. For the same molecule, the viability, T/C [8] was 107%, the viability, T/C [9] was 46% and the viability, T/C [10] was 0.06%. It also gave a viability, T/C [11] of 0.03%, a viability, T/C [12] of 1.83% and a viability, T/C [13] of 109%. For the same molecule, the viability, T/C [14] was 100%, the viability, T/C [15] was 25.9% and the viability, T/C [16] was 0.26%. For the same molecule, the viability, T/C [17] was 3.69%, the viability, T/C [18] was 3.26% and the viability, T/C [19] was 90.9%. For the same molecule, the viability, T/C [20] was 94.5%, the viability, T/C [21] was 19.2% and the viability, T/C [22] was 0.04%. It also gave a viability, T/C [23] of 2.68%, a viability, T/C [24] of 0.1% and a viability, T/C [25] of 87.7%. It also gave a viability, T/C [26] of 80.8%, a viability, T/C [27] of 46.9% and a viability, T/C [28] of 0.13%. It also gave a viability, T/C [29] of 0.6% and a viability, T/C [30] of 0.18%.
`CC(C)CC(NC(=O)CNC(=O)c1cc(Cl)ccc1Cl)B1OC(=O)CC(CC(=O)O)(C(=O)O)O1` (stereo not given) + NC1CCC(NC2CC2c2ccccc2)CC1 was tested, and the IC50 (second compound 0.1 µM) was 5.11 nM, the IC50 (second compound 0.316 µM) was 5.49 nM and the IC50 (second compound 1 µM) was 4.87 nM. The IC50 (second compound 3.16 µM) was 4.14 nM, the IC50 (second compound 10 µM) was 3.33 nM and the viability, T/C [1] was 104%. For the same molecule, the viability, T/C [2] was 90.2%, the viability, T/C [3] was 81.8% and the viability, T/C [4] was 4.56%. It also gave a viability, T/C [5] of 6.96%, a viability, T/C [6] of 5.21% and a viability, T/C [7] of 109%. It also gave a viability, T/C [8] of 96.2%, a viability, T/C [9] of 88.8% and a viability, T/C [10] of 7.64%. The viability, T/C [11] was 8.46%, the viability, T/C [12] was 0.08% and the viability, T/C [13] was 88.7%. It also gave a viability, T/C [14] of 78.1%, a viability, T/C [15] of 75.8% and a viability, T/C [16] of 7.01%. It also gave a viability, T/C [17] of 4.17%, a viability, T/C [18] of 2.6% and a viability, T/C [19] of 77.2%. The viability, T/C [20] was 70.2%, the viability, T/C [21] was 63.4% and the viability, T/C [22] was 6.41%. For the same molecule, the viability, T/C [23] was 0.1%, the viability, T/C [24] was 3.85% and the viability, T/C [25] was 81.8%. For the same molecule, the viability, T/C [26] was 73.7%, the viability, T/C [27] was 52.8% and the viability, T/C [28] was 6.15%. The viability, T/C [29] was 0.14% and the viability, T/C [30] was 0.16%.
Molecule `Cn1ncnc1C1c2n[nH]c(=O)c3cc(F)cc(c23)NC1c1ccc(F)cc1` (stereo not given) + NC1CCC(NC2CC2c2ccccc2)CC1 has an IC50 (second compound 0.1 µM) of over 100 nM, an IC50 (second compound 0.316 µM) of over 100 nM and an IC50 (second compound 1 µM) of over 100 nM. For the same molecule, the IC50 (second compound 3.16 µM) was over 100 nM, the IC50 (second compound 10 µM) was over 100 nM and the viability, T/C [1] was 103%. It also gave a viability, T/C [2] of 99.2%, a viability, T/C [3] of 94.4% and a viability, T/C [4] of 104%. It also gave a viability, T/C [5] of 96.3%, a viability, T/C [6] of 77.8% and a viability, T/C [7] of 113%. The viability, T/C [8] was 110%, the viability, T/C [9] was 100% and the viability, T/C [10] was 102%. It also gave a viability, T/C [11] of 106%, a viability, T/C [12] of 110% and a viability, T/C [13] of 83.8%. The viability, T/C [14] was 87.1%, the viability, T/C [15] was 78.1% and the viability, T/C [16] was 87.5%. For the same molecule, the viability, T/C [17] was 70.7%, the viability, T/C [18] was 97% and the viability, T/C [19] was 83%. For the same molecule, the viability, T/C [20] was 85.7%, the viability, T/C [21] was 83.6% and the viability, T/C [22] was 81.6%. It also gave a viability, T/C [23] of 76.1%, a viability, T/C [24] of 79.1% and a viability, T/C [25] of 75.7%. For the same molecule, the viability, T/C [26] was 73.4%, the viability, T/C [27] was 73.4% and the viability, T/C [28] was 80.9%. The viability, T/C [29] was 65.1% and the viability, T/C [30] was 68.5%.
With `NS(=O)(=O)OCC1CC(n2ccc3c(NC4CCc5ccccc54)ncnc32)CC1O` (stereo not given) + NC1CCC(NC2CC2c2ccccc2)CC1 the IC50 (second compound 0.1 µM) was 108 nM, the IC50 (second compound 0.316 µM) was 88.8 nM and the IC50 (second compound 1 µM) was 47.5 nM. It also gave an IC50 (second compound 3.16 µM) of 49.6 nM, an IC50 (second compound 10 µM) of 54.1 nM and a viability, T/C [31] of 106%. The viability, T/C [32] was 95.7%, the viability, T/C [33] was 55.9% and the viability, T/C [34] was 9.71%. The viability, T/C [35] was 11.5%, the viability, T/C [36] was 9.68% and the viability, T/C [37] was 90.8%. The viability, T/C [38] was 70%, the viability, T/C [39] was 53.4% and the viability, T/C [40] was 9.15%. It also gave a viability, T/C [41] of 6.44%, a viability, T/C [42] of 7.69% and a viability, T/C [43] of 90.7%. The viability, T/C [44] was 55.9%, the viability, T/C [45] was 43.2% and the viability, T/C [46] was 12%. The viability, T/C [47] was 11.3%, the viability, T/C [48] was 6.96% and the viability, T/C [49] was 102%. For the same molecule, the viability, T/C [50] was 62.9%, the viability, T/C [51] was 34.5% and the viability, T/C [52] was 10.7%. The viability, T/C [53] was 7.04%, the viability, T/C [54] was 1.91% and the viability, T/C [55] was 89.9%. It also gave a viability, T/C [56] of 66.2%, a viability, T/C [57] of 33.4% and a viability, T/C [58] of 19%. The viability, T/C [59] was 5.43% and the viability, T/C [60] was 3.7%.
`O=C(C=Cc1cccc(S(=O)(=O)Nc2ccccc2)c1)NO` + NC1CCC(NC2CC2c2ccccc2)CC1 was tested, and the IC50 (second compound 0.1 µM) was over 3000 nM, the IC50 (second compound 0.316 µM) was over 3000 nM and the IC50 (second compound 1 µM) was 3000 nM. For the same molecule, the IC50 (second compound 3.16 µM) was over 3000 nM, the IC50 (second compound 10 µM) was 3000 nM and the viability, T/C [31] was 105%. It also gave a viability, T/C [32] of 115%, a viability, T/C [33] of 122% and a viability, T/C [34] of 134%. For the same molecule, the viability, T/C [35] was 51.9%, the viability, T/C [36] was 110% and the viability, T/C [37] was 101%. For the same molecule, the viability, T/C [38] was 108%, the viability, T/C [39] was 128% and the viability, T/C [40] was 120%. For the same molecule, the viability, T/C [41] was 47.7%, the viability, T/C [42] was 106% and the viability, T/C [43] was 81.3%. The viability, T/C [44] was 105%, the viability, T/C [45] was 108% and the viability, T/C [46] was 109%. The viability, T/C [47] was 44.7%, the viability, T/C [48] was 78.8% and the viability, T/C [49] was 101%. The viability, T/C [50] was 101%, the viability, T/C [51] was 102% and the viability, T/C [52] was 116%. It also gave a viability, T/C [53] of 38.5%, a viability, T/C [54] of 89.3% and a viability, T/C [55] of 79.2%. It also gave a viability, T/C [56] of 85.5%, a viability, T/C [57] of 78.8% and a viability, T/C [58] of 117%. For the same molecule, the viability, T/C [59] was 32.9% and the viability, T/C [60] was 76.3%.
